The results in this text go back to patent US9708334B2, “Substituted 2,4,5,6-tetrahydropyrrolo[3,4-c]pyrazole and 4,5,6,7-tetrahydro-2H-pyrazolo[4,3-c]pyridine compounds as GlyT1 inhibitors” (DART NEUROSCIENCE (CAYMAN) LTD., priority 2014, dated 2017).

A value given as a limit tells only on which side of the number the result lay.

The target of this assay is T1, GlyT1 (Homo sapiens, UniProt P48067).
T1 construct: expressed in transfected cells
T1 sequence (P48067 1-706): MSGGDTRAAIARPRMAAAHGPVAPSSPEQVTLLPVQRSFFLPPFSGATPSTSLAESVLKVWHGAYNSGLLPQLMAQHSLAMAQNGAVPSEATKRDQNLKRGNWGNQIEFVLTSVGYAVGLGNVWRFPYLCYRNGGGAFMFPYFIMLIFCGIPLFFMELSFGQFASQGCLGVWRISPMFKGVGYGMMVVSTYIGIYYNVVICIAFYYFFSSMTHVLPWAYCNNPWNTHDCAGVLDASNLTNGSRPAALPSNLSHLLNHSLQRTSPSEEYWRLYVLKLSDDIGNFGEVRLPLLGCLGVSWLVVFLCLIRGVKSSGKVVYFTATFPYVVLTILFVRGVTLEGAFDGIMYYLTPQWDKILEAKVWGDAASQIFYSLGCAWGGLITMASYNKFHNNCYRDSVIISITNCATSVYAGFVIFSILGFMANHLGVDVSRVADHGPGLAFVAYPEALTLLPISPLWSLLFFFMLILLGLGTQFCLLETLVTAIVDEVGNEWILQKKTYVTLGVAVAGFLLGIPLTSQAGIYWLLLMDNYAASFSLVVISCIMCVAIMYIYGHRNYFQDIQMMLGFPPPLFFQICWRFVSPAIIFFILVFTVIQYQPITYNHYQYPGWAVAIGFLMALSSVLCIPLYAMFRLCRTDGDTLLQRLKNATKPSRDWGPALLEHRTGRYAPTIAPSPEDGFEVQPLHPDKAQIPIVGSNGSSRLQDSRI
Nature of the assay: Glycine Transporter 1 (GlyT1) uptake assay, scintillation proximity assay of [14C]-glycine uptake. Format: cell-based. Conditions: SPA, four parameter logistic fit, read-out: GlyT1 (pIC50) (converted). The gist of the method:
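IC50 values derive from four-parameter logistic curves fitted to dose-response data. Uptake of [14C]-glycine measured in scintillation proximity format.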
In general terms: In a scintillation proximity assay essentially only radioactivity close to the scintillant gives light.
On to `N#Cc1ccc(C2(F)CCCC2)c(C(=O)N2CCc3nn(-c4ccccc4)cc3C2)c1F` [Example 187, 2-Fluoro-4-(1-fluorocyclopentyl)-3-{2-phenyl-2H 4H 5H 6H 7H-pyrazolo[4,3-c]pyridine-5-carbonyl}benzonitrile], for which the IC50 is 100 to 1000 nM.

Take `CC(C)Oc1ccc(C#N)cc1C(=O)N1Cc2cn(-c3ccccc3)nc2C1` [Example 334, 3-{2-Phenyl-2H 4H 5H 6H-pyrrolo[3,4-c]pyrazole-5-carbonyl}-4-(propan-2-yloxy)benzonitrile]: the IC50 was under 100 nM. The value for `C[C@H](Oc1ccc(C#N)cc1C(=O)N1Cc2cn(CC3CCOC3)nc2C1)C(F)(F)F` (stereo partly drawn) [Example 419, 3-[2-(Oxolan-3-ylmethyl)-2H 4H 5H 6H-pyrrolo[3,4-c]pyrazole-5-carbonyl]-4-{[(2S)-1 1 1-trifluoropropan-2-yl]oxy}benzonitrile] was 100 to 1000 nM; that for `CCOc1cc(-n2cc3c(n2)CN(C(=O)c2cc(C#N)ccc2O[C@@H](C)C(F)(F)F)C3)ccn1` [Example 371, 3-[2-(2-Ethoxypyridin-4-yl)-2H 4H 5H 6H-pyrrolo[3,4-c]pyrazole-5-carbonyl]-4-{[(2S)-1 1 1-trifluoropropan-2-yl]oxy}benzonitrile] was 100 to 1000 nM; that for `C[C@H](Oc1ccc(C#N)cc1C(=O)N1Cc2cnn(Cc3ccccc3)c2C1)C(F)(F)F` [Example 383] was 1000 to 10000 nM. The value for `Cc1cncc(-c2ccc(S(C)(=O)=O)cc2C(=O)N2Cc3cn(-c4ccc(F)cn4)nc3C2)c1` [Example 549, 5-Fluoro-2-{5-[5-methanesulfonyl-2-(5-methylpyridin-3-yl)benzoyl]-2H 4H 5H 6H-pyrrolo[3,4-c]pyrazol-2-yl}pyridine] was under 100 nM; that for `N#Cc1ccc(OCC(F)F)c(C(=O)N2Cc3cn(-c4ccc(F)cc4)nc3C2)c1` [Example 527, 4-(2 2-Difluoroethoxy)-3-[2-(4-fluorophenyl)-2H 4H 5H 6H-pyrrolo[3,4-c]pyrazole-5-carbonyl]benzonitrile] was 1000 to 10000 nM.

Take `Cc1c(F)cncc1-n1cc2c(n1)CN(C(=O)c1cc(C#N)ccc1O[C@@H](C)C(F)(F)F)C2` [Example 352, 3-[2-(5-Fluoro-4-methylpyridin-3-yl)-2H 4H 5H 6H-pyrrolo[3,4-c]pyrazole-5-carbonyl]-4-{[(2 S)-1 1 1-trifluoropropan-2-yl]oxy}benzonitrile]: the IC50 was 100 to 1000 nM.

For `COc1c(C#N)ccc(OC2COC2)c1C(=O)N1Cc2cn(-c3ccc(F)cc3)nc2C1` [Example 519, 3-[2-(4-Fluorophenyl)-2H 4H 5H 6H-pyrrolo[3,4-c]pyrazole-5-carbonyl]-2-methoxy-4-(oxetan-3-yloxy)benzonitrile], the IC50 was under 100 nM.

Consider `CCc1cc(-n2cc3c(n2)CN(C(=O)c2cc(C#N)ccc2O[C@@H](C)C(F)(F)F)C3)ccn1` [Example 367, 3-[2-(2-Ethylpyridin-4-yl)-2H 4H 5H 6H-pyrrolo[3,4-c]pyrazole-5-carbonyl]-4-{[(2S)-1 1 1-trifluoropropan-2-yl]oxy}benzonitrile], for which the IC50 is under 100 nM. As for `C[C@H](Oc1ccc(C#N)c(Cl)c1C(=O)N1Cc2cn(-c3cn(C)cn3)nc2C1)C(F)(F)F` [Example 292, 2-Chloro-3-[2-(1-methyl-1H-imidazol-4-yl)-2H 4H 5H 6H-pyrrolo[3,4-c]pyrazole-5-carbonyl]-4-{[(2S)-1 1 1-trifluoropropan-2-yl]oxy}benzonitrile], the IC50 was 100 to 1000 nM. The value for `Cc1cc(-n2cc3c(n2)CN(C(=O)c2c(O[C@@H](C)C(F)(F)F)ccc(C#N)c2Cl)C3)ncc1F` [Example 304, 2-Chloro-3-[2-(5-fluoro-4-methylpyridin-2-yl)-2H 4H 5H 6H-pyrrolo[3,4-c]pyrazole-5-carbonyl]-4-{[(2S)-1 1 1-trifluoropropan-2-yl]oxy}benzonitrile] was under 100 nM.
